Source: patent publication US20260356860A1, “2-SUBSTITUTED 3,4A,5,7,8,8A-HEXAHYDRO-4H-THIOPYRANO[4,3-DJPYRIMIDIN-4-ONES FOR WOUND TREATMENT” (priority 2022, published 2026)
pIC50: −log10 of the molar value.

Key:
[1] = test system: CRE, F-κB, or TGF-β; conditions: cited from earlier work
[2] = test system: wound; conditions: in a GO-HA matrix; cited from earlier work
[3] = test system: TK 1; conditions: cell-free assay; read-out: IC50, TK 1 inhibition; cited from earlier work
[4] = test system: ear punch wound; conditions: cited from earlier work
[5] = test system: P. aeruginosa (derived from ATCC ® 15442 ™); assay: Bacteriostasis, log reduction; assay type: cell-based; conditions: P. aeruginosa ATCC 15442
Method: (§1) In order to assess the log reduction capabilities of compounds of Formula (1), testing was performed on organisms that are found in acute and chronic wounds. Triplicate tubes were prepared for each bacteria using 50 μL of inoculum (about 1×10^6 CFU/mL) which was added to 450 μL of compound solution (compound of Formula (I)) (or 100 μL of inoculum in 900 μL of compound solution), resulting in a final inoculum of about 1×10^5 CFU/mL, as shown in Table 4.
(§2) Tubes were mixed with a vortex and then incubated in a shaking incubator at 175 RPM and 35° C. to 37° C.
(§3) Positive control in Tables 5a and 5b was 1 mL of 0.89% saline with 1 mL of the 1×10^6 CFU/mL of the organism.
(§4) For Compounds 1, 7, 8, 10, and 18 in Tables 6, 7-A, 7-B, 8, 9, 10-A, 10-B, and 11: The compound solutions were prepared with compound (30 mg), polysorbate 20 (1.6 mL), butylene glycol (1.6 mL), phosphatidyl choline (0.66 g), ethanol (1.6 mL), hydroxypropyl cellulose (0.26 g), and ultra pure water (24.9 mL).
(§5) XAV939 Control in Table X1 was XAV939 (30 mg), polysorbate 20 (1.6 mL), butylene glycol (1.6 mL), phosphatidyl choline (0.66 g), ethanol (1.6 mL), ultra pure water (24.9 mL), and hydroxypropyl cellulose (0.26 g).
(§6) GO-HA Control in Table X2 was GO-HA (30 mg), polysorbate 20 (1.6 mL), butylene glycol (1.6 mL), phosphatidyl choline (0.66 g), ethanol (1.6 mL), ultra pure water (24.9 mL), and hydroxypropyl cellulose (0.26 g).
(§7) For Compound 18+GO-HA in Tables 6 and X4: compound 18 (45 mg), GO-HA (45 mg), polysorbate 20 (2 mL), butylene glycol (2 mL), phosphotidyl choline (0.5 g), ethanol (2 mL), hydroxypropyl cellulose (0.40 g), and ultra pure water (40 mL).
(§8) For XAV939+GO-HA in Tables 6 and X3-A, and X3-B: XAV939 (45 mg), GO-HA (45 mg), butylene glycol (2 mL), polysorbate 20 (2 mL), phosphotidyl choline (0.5 g), ethanol (2 mL), hydroxypropyl cellulose (0.40 g), and ultra pure water (40 mL).
(§9) Testing was performed at two time points: 18 to 24 hours, and […].

[6] = test system: S. aureus (MRSA) (derived from ATCC ® 33593 ™); assay: Bacteriostasis, log reduction; assay type: cell-based; conditions: S. aureus (MRSA) ATCC 33593
Method: as §1, §2, §3, §4, §5, §6, §7, §8, §9

[7] = test system: E. coli (derived from ATCC ® 25922 ™); assay: Bacteriostasis, log reduction; assay type: cell-based; conditions: E. coli ATCC 25922
Method: as §1, §2, §3, §4, §5, §6, §7, §8, §9

[8] = test system: S. epidermidis (derived from ATCC ® 14990 ™); assay: Bacteriostasis, log reduction; assay type: cell-based; conditions: S. epidermidis ATCC 14990
Method: as §1, §2, §3, §4, §5, §6, §7, §8, §9

[9] = test system: E. coli (derived from ATCC ® 8739 ™); assay: Bacteriostasis, log reduction; assay type: cell-based; conditions: E. coli ATCC 8739
Method: as §1, §2, §3, §4, §5, §6, §7, §8, §9

[10] = test system: S. aureus (derived from ATCC ® 6538 ™); assay: Bacteriostasis, log reduction; assay type: cell-based; conditions: S. aureus ATCC 6538
Method: as §1, §2, §3, §4, §5, §6, §7, §8, §9

[11] = test system: E. faecalis (derived from ATCC ® 19433 ™); assay: Bacteriostasis, log reduction; assay type: cell-based; conditions: E. faecalis ATCC 19433
Method: as §1, §2, §3, §4, §5, §6, §7, §8, §9

[12] = test system: TK2; conditions: cell-free assay; read-out: IC50, TK2 inhibition; cited from earlier work
[13] = test system: HEK293 SuperTOPFlash reporter cells, Wnt promoter; assay: HEK CELL Wnt Assay (luciferase reporter); assay type: cell-based; conditions: serial dilutions, with or without 50 ng/mL Wnt3a; 18 h
Outline: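 Reporter cells were seeded 24 h before dosing with serial dilutions ([…] to 1 nM), with or without 50 ng/mL Wnt3a, and incubated 18 h. Untreated cells served as negative control, with luciferase as read-out.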

[14] = cited from earlier work

Oc1nc(-c2ccc(C(F)(F)F)cc2)nc2c1CSCC2 [XAV939, reference compound]
effect on CRE, F-κB, or TGF-β [1]: does not affect CRE, F-κB, or TGF-β
quality of wound healing [2]: substantial improvement to the quality of wound healing
pIC50 [3]: 7.96
cartilage regeneration and healing ([4]; 2 mm biopsy punch wound in cartilaginous region of C57B1/CJ mouse): increased cartilage regeneration and healing
wound closure rate and fibrosis ([4]; topical, mouse ear punch): significantly increased rate of wound closure with reduced fibrosis (scarring)
Average result ([5]; 24 h): <200
Log Reduction ([5]; 24 h): >3.1
Log Value ([5]; 24 h): <2.3
Average result ([5]; 72 h): <200
Log Reduction ([5]; 72 h): >3.1
Log Value ([5]; 72 h): <2.3
Average result ([6]; 24 h): 8.7 × 10^4
Log Reduction ([6]; 24 h): No
Log Value ([6]; 24 h): 4.9
Average result ([6]; 72 h): <6.8 × 10^3
Log Reduction ([6]; 72 h): >0.8
Log Value ([6]; 72 h): <3.8
Average result ([7]; 24 h): 2.8 × 10^4
Log Reduction ([7]; 24 h): 1.0
Log Value ([7]; 24 h): 4.4
Average result ([7]; 72 h): <200
Log Reduction ([7]; 72 h): >3.1
Log Value ([7]; 72 h): <2.3
Average result ([8]; 24 h): 5.5 × 10^4
Log Reduction ([8]; 24 h): 0.1
Log Value ([8]; 24 h): 4.7
Average result ([8]; 72 h): <200
Log Reduction ([8]; 72 h): >2.5
Log Value ([8]; 72 h): <2.3
Average result ([9]; 24 h): 2.7 × 10^3
Log Reduction ([9]; 24 h): 1.9
Log Value ([9]; 24 h): 3.4
Average result ([9]; 72 h): <200
Log Reduction ([9]; 72 h): >3.0
Log Value ([9]; 72 h): <2.3
Average result ([10]; 24 h): 2.5 × 10^3
Log Reduction ([10]; 24 h): 1.9
Log Value ([10]; 24 h): 3.4
Average result ([10]; 72 h): 1.7 × 10^5
Log Reduction ([10]; 72 h): 0.1
Log Value ([10]; 72 h): 5.2
Average result ([11]; 24 h): 2.6 × 10^5
Log Reduction ([11]; 24 h): No
Log Value ([11]; 24 h): 5.4
Average result ([11]; 72 h): 1.7 × 10^5
Log Reduction ([11]; 72 h): No
Log Value ([11]; 72 h): 5.1
pIC50 [12]: 8.40
pIC50 [13]: 7.30
solubility in water-based solutions [14]: poor solubility in water-based solutions
aqueous solubility ([14]; water): < 1 µg/mL
